Test results from patent US6372297B1, “Wood preservative oxathiazines” (Uniroyal Chemical Company, Inc., priority 1993, dated 2002).

Tests used:
Pseudomonas aeruginosa = assay: Wood preservative efficacy against bacteria and yeasts, tryptose agar plates; format: cell-based; parameters: key: 0 = growth equal to control, 1 = growth inhibited, 2 = no growth; conditions: 100 ppm in tryptose agar
Method: Compositions were prepared by dissolving the compounds shown in Table 1 in 50% ethanol and further diluting with sterile distilled water. […] After cooling, the medium was inoculated with the bacteria listed below. After sufficient growth of the untreated cultures, the compounds were evaluated using the following rating system: 0=growth equal to control 1=inhibition of growth by the compound 2=no growth under the influence of the compound. In this Table, the higher numbers are the most preferred species. Pseudomonas aeruginosa (gram neg)

Chaetomium globosum = assay: Wood preservative efficacy against fungi, agar plate colony diameter; format: cell-based
Method: (§1) Each plate was inoculated with a spore suspension or with a small piece of agar (1 mm) from the margin of an actively growing colony of the test fungus. The fungi employed are listed below. After incubation at 22° C. and 70% relative humidity during a period long enough to allow significant growth of untreated controls, the diameters of the fungus colonies were measured and scored using the following rating system: 0=free of fungal growth 1=25% of fungal growth compared to untreated 2=50% of fungal growth compared to untreated 3=75% of fungal growth compared to untreated 4=Growth equal to that of untreated The scores measured for wood preservation efficacy of the compounds of this invention are listed in Tables 6a and 6b. In these Tables, the lower numbers are the most preferred species. Chaetomium globosum

Cladosporium resinae = assay: as above; format: cell-based
Method: as §1, with “Cladosporium resinae (syn Hormonocanis resinae, Amorphotheca resinae)” for “Chaetomium globosum”

Aureobasidium pullulans = assay: Control of molds and blue stain fungi in stick test (beech sticks); conditions: minimum concentration producing a score less than or equal to 1; dosages 50-1000 ppm
Method: (§2) The compounds shown in Table 1 were dissolved in 50% ethanol and a dilution series was made using the same solvent. In 25 ml of each dilution, one oven-dried beech stick (73×18×2 mm) was drenched until saturated.
(§3) Test dosages were 50, 100, 250, 500, and 1000 ppm for blue stain fungi which were Aureobasidium pullulans and Sclerophoma pithyophila. Test dosages for the molds used (Trichoderma viride, Aspergillus niger) were 250, 500, 1000, 2500, and 5000 ppm.
(§4) After three hours the test solution was poured off and each stick was allowed to dry in a sterile laminar air flow. In each Petri dish one stick was placed on malt agar previously seeded with inoculum. Two drops of fungal or spore suspension were pipetted on the upper surface of the stick. The Petri dishes were then incubated at 22° C. and 90% relative humidity. The treated sticks were evaluated after sufficient growth of the fungus on the untreated control sticks. The following score system was used to rate the effectiveness of the compounds:
(§5) 0=stick free of fungal growth
(§6) 1=traces of fungal growth on stick
(§7) 2=slight fungal growth (5 to 25% of the surface covered)
(§8) 3=moderate fungal growth (25 to 50% of the surface covered)
(§9) 4=vigorous fungal growth (greater than 50% of the surface covered).
(§10) For purposes of comparison of these compounds, these values were converted to threshold ranges. The threshold value in this system is defined as the minimum concentration of a particular compound which produces a score less than or equal to 1.

Sclerophoma pithyophila = assay: as above; conditions: minimum concentration producing a score less than or equal to 1; dosages 50-1000 ppm
Method: as §2, §3, §4, §5, §6, §7, §8, §9, §10

Trichoderma viride = assay: as above; conditions: minimum concentration producing a score less than or equal to 1; dosages 250-5000 ppm
Method: as §2, §3, §4, §5, §6, §7, §8, §9, §10

Aspergillus niger = assay: as above; conditions: minimum concentration producing a score less than or equal to 1; dosages 250-5000 ppm
Method: as §2, §3, §4, §5, §6, §7, §8, §9, §10

Penicillium islandicum = assay: Wood preservative efficacy against fungi, agar plate colony diameter; format: cell-based; parameters: key: 1 = 25%, 2 = 50%, 3 = 75%, 4 = 100% of untreated fungal growth
Method: The compounds shown in Table 1 were dissolved in 50% ethanol and then diluted with sterile water to give the required concentrations of 1 and 10 ppm in the test agar plates. Malt extract sugar (3%) was added aseptically and uniform distribution was obtained by shaking. Each plate was inoculated with a spore suspension or with a small piece of agar (1 mm) from the margin of an actively growing colony of the test fungus. The fungi employed are listed below. After incubation at 22° C. and 70% relative humidity during a period long enough to allow significant growth of untreated controls, the diameters of the fungus colonies were measured and scored using the following rating system:
1=25% of fungal growth compared to untreated
2=50% of fungal growth compared to untreated
3=75% of fungal growth compared to untreated
4=Growth equal to that of untreated
In these Tables, the lower numbers are the most preferred species.

Coniophora puteana = assay: as above; format: cell-based; parameters: key: 0 = no fungal growth, 1-3 = 25/50/75% of untreated, 4 = equal
Method: as §1, with “Coniophora puteana (syn. C. cerebella)” for “Chaetomium globosum”

Streptomyces albus = assay: Wood preservative efficacy against bacteria and yeasts, tryptose agar plates; format: cell-based; parameters: key: 0 = growth equal to control, 1 = inhibition, 2 = no growth
Method: Compositions were prepared by dissolving the compounds shown in Table 1 in 50% ethanol and further diluting with sterile distilled water. […] After cooling, the medium was inoculated with the bacteria listed below. After sufficient growth of the untreated cultures, the compounds were evaluated using the following rating system: 0=growth equal to control 1=inhibition of growth by the compound 2=no growth under the influence of the compound. In this Table, the higher numbers are the most preferred species. Streptomyces albus (gram pos)

Escherichia coli = assay: as above; format: cell-based; parameters: key: 0 = growth equal to control, 1 = growth inhibited, 2 = no growth
Method: Compositions were prepared by dissolving the compounds shown in Table 1 in 50% ethanol and further diluting with sterile distilled water. […] After cooling, the medium was inoculated with the bacteria listed below. After sufficient growth of the untreated cultures, the compounds were evaluated using the following rating system: 0=growth equal to control 1=inhibition of growth by the compound 2=no growth under the influence of the compound. In this Table, the higher numbers are the most preferred species. Escherichia coli ([…])

Row | Structure (SMILES) | Score of bactericidal activity, P. aeruginosa (Pseudomonas aeruginosa) | Score of fungicidal activity, C. GLOBOSUM (Chaetomium globosum; 10 ppm, Table 6B) | Score of fungicidal activity, CL RESINAE (Cladosporium resinae; 10 ppm, Table 6B) | Threshold value in stick test, AUREOBASIDIUM PULLULANS (Aureobasidium pullulans) | Threshold value in stick test, SCLEROPHOMA PYTHIOPHILA (Sclerophoma pithyophila) | Threshold value in stick test, TRICHODERMA VIRIDE (Trichoderma viride) | Threshold value in stick test, A[…] (Aspergillus niger) | Score of fungicidal activity, P. ISLANDICUM (Penicillium islandicum; 10 ppm, Table 6B) | Score of fungicidal activity, C. PUTEANA (Coniophora puteana; 10 ppm, Table 6B) | Score of bactericidal activity, S. albus (Streptomyces albus; 10 ppm in tryptose agar) | Score of bactericidal activity, S. albus (Streptomyces albus; 100 ppm in tryptose agar) | Score of bactericidal activity, E. Coli (Escherichia coli; 10 ppm in tryptose agar) | Score of bactericidal activity, E. Coli (Escherichia coli; 100 ppm in tryptose agar) | Score of fungicidal activity, C. PUTEANA (Coniophora puteana; 1 ppm, Table 6B) | Score of fungicidal activity, C. GLOBOSUM (Chaetomium globosum; Test dosage 10 ppm, Table 6A) | Score of fungicidal activity, CL RESINAE (Cladosporium resinae; Test dosage 10 ppm, Table 6A) | Score of fungicidal activity, P. ISLANDICUM (Penicillium islandicum; Test dosage 10 ppm, Table 6A) | Score of fungicidal activity, C. PUTEANA (Coniophora puteana; Test dosage 10 ppm, Table 6A)
1 | C[S+]1CCON=C1c1cc(Cl)cc(Cl)c1 (stereo not drawn) [Compound 19] | 0 | 0 | 0 | 250-500 ppm | 250-500 ppm | <250 ppm | 250-500 ppm | 0 | 3 (75% of growth compared to untreated control) | 0 | 2 | 0 | 0 | – | – | – | – | –
2 | C[S+]1CCON=C1c1ccc(C(F)(F)F)cc1 (stereo not drawn) [Compound 25] | 0 | 3 (75% of growth compared to untreated control) | 0 | 250-500 ppm | 50-100 ppm | <250 ppm | <250 ppm | 1 (25% of growth compared to untreated control) | 0 | 2 | 2 | 0 | 0 | 2 (50% of growth compared to untreated control) | – | – | – | –
3 | COC(=O)c1cccc(C2=NOCC[S+]2[O-])c1 (stereo not drawn) [Compound 26] | 0 | 4 | 4 | – | – | – | – | 4 | 4 | 0 | 2 | 0 | 0 | – | – | – | – | –
4 | CCOc1ccc(C2=NOCC[S+]2C)cc1 (stereo not drawn) [Compound 28] | 0 | 4 | 4 | – | – | – | – | 4 | 0 | 1 | 2 | 0 | 0 | – | – | – | – | –
5 | [O-][S+]1CCON=C1c1ccc(Cl)c(Cl)c1 (stereo not drawn) [Compound 4] | 0 | – | – | 500-1000 ppm | 50-100 ppm | 500-1000 ppm | 250-500 ppm | – | – | – | 2 | – | 2 | – | 0 | 0 | 0 | 0
6 | CCOC(=O)c1ccc(C2=NOCC[S+]2[O-])cc1 (stereo not drawn) [Compound 22] | 0 | 4 | 4 | – | – | – | – | 2 (50% of growth compared to untreated control) | 0 | 1 | 2 | 0 | 0 | 3 (75% of growth compared to untreated control) | – | – | – | –
7 | CC(=O)c1ccc(C2=NOCC[S+]2[O-])cc1 (stereo not drawn) [Compound 14] | 1 | – | – | – | – | – | – | – | – | – | 2 | – | 2 | – | 4 | 0 | 4 | 3 (75% of growth compared to untreated control)
8 | [O-][S+]1CCON=C1c1cccs1 (stereo not drawn) [Compound 8] | 1 | – | – | 250-500 ppm | 50-100 ppm | 500-1000 ppm | 250-500 ppm | – | – | – | 2 | – | 2 | – | 2 (50% of growth compared to untreated control) | 2 (50% of growth compared to untreated control) | 0 | 2 (50% of growth compared to untreated control)
